In patent publication US20090105119A1, “ASPARAGINE-10-SUBSTITUTED NONADEPSIPEPTIDES” (priority 2006, published 2009):
*1 amine or outer side, *2 acyl side, *3 side chain or, on linkers, in order; H or OH if unused. Where a SMILES comes first, the peptide text is derived from it. Bridges are numbered along the chain shown (N, C = ends). Side-chain parts run from the residue outwards. [ ]: non-standard residue; d: D form. The star is where a group is joined. X4 = O=C(CNC(=O)[C@@H](O)[C@H](N[*:1])C(=O)[*:2])OCc1ccccc1; Phe(3R-OH) = O=C([C@@H](N[*:1])[C@H](O[*:3])c1ccccc1)[*:2]; X8 = O=C(NCCCN1CCOCC1)[C@@H](O)[C@H](N[*:1])C(=O)[*:2]; X6 = NC(=O)CNC(=O)[C@@H](O)[C@H](N[*:1])C(=O)[*:2]; X3 = O=C([C@@H](N[*:1])[C@H](O)C(=O)[*:3])[*:2]; X5 = NCCNC(=O)[C@@H](O)[C@H](N[*:1])C(=O)[*:2]; Asn(3S-OH) = NC(=O)[C@@H](O)[C@H](N)C(=O)O; Leu(3R-OH) = CC(C)[C@@H](O)[C@H](N)C(=O)O; Ethylenediamine = C(CN[*:2])N[*:1]; aThr = C[C@H](O)[C@H](N)C(=O)O; Cbz = O=C(OCc1ccccc1)*

Legend:
[1] = Determination of the free fraction (fu) in plasma; format: in vitro ADME, rat; details: rat, plasma, pH 7.4
Method: (§1) Principle of the Determination of the Free Fraction Via Transil:
(§2) The method described here for determining the free fraction (fu) of a test substance is divided into 2 parts:
(§3) a) Determination of the Transil®/buffer distribution ratio (MAbuffer) by incubating the test substance in a Transil®-buffer (pH 7.4) dispersion and subsequently determining the concentration in the dispersion and in the buffer supernatant.
(§4) b) Determination of the Transil®/plasma distribution ratio (MAplasma) by incubating the test substance in a Transil®-plasma dispersion and subsequently determining the concentration in the dispersion and in the plasma.
(§5) The quotient of the two distribution ratios yields fu.
(§6) In the case of highly protein-bound substances, the plasma is usually diluted with isotonic phosphate buffer (pH 7.4) and then suspended with Transil®. The determination of fu′ (free fraction in diluted plasma) in this diluted protein solution takes place in analogy to the determination of fu. The free fraction in undiluted plasma is calculated from fu′ and the dilution factor.
(§7) Concerning this method, compare also: Schuhmacher, Joachim; Kohlsdorfer, Christian; Buehner, Klaus; Brandenburger, Tim; Kruk, Renate, “High-throughput determination of the free fraction of drugs strongly bound to plasma proteins.” Journal of Pharmaceutical Sciences 2004, 93, 816-830.
(§8) Determination of the Membrane Affinity of a Test Substance after Distribution Between Transil® and Buffer (MAbuffer):
(§9) All incubations are carried out in suitable glass vessels, e.g. glass vials, ground-socket test tubes. In general the total volume is 0.5-5 ml, and the Transil® volume 10-100 μl. In cases where the membrane affinities are expected to be high, the Transil® dispersion can be diluted up to 20-fold with phosphate buffer of pH 7.4, e.g. Dulbecco's PBS. Phosphate buffer of pH 7.4 is provided in the incubation vessels, and the Transil® is pipetted in, after thorough mixing. The test substance is pipetted in at a concentration of, for example, 200 ng/mL, n=6. The proportion of organic solvent should be <2%. The mixtures are incubated at room temperature for 30 min, e.g. on a mini-shaker at an angle of about 45°, at about 400 rpm. In order to determine the 100% value at least one aliquot of, for example, 100 μl, is removed and the remaining mixture is centrifuged at about 1800 g for about 10 min. At least 2 aliquots (e.g. 100 μl) of the supernatant are removed from each sample for the determination of the concentration.
(§10) Determination of MAplasma in Undiluted or Diluted Plasma:
(§11) The total incubation volume and the added volume of Transil® depend on the expected free fraction. In general the total volume is 0.5-1 ml, and the Transil® volume is 10-100 μl. In cases where the free fractions are very low, the plasma of the species to be investigated is diluted, with isotonic buffer solution, pH 7.4, e.g. 10-400-fold, and the Transil® is then added. The subsequent procedure takes place as described above for the determination of the MAbuffer values. […]
(§12) The plasma of the species to be investigated is filtered through a semipermeable membrane. The substance concentration in the filtrate is measured and the free fraction fu is calculated therefrom. […] The substance concentration in the ultrafiltrate (Cu; unbound substance concentration) and in the plasma before centrifugation (C; total substance concentration) is measured. The free fraction is calculated by the formula: fu (%)=Cu/C*100.

[2] = Determination of the free fraction (fu) in plasma; format: in vitro ADME; details: human
Method: as §1, §2, §3, §4, §5, §6, §7, §8, §9, §10, §11, §12

[3] = test system: Staphylococcus aureus 133; format: cell-based; details: 133
Method: (§13) Determination of the Minimum Inhibitory Concentration (MIC):
(§14) The MIC is determined in the liquid dilution test in accordance with the NCCLS guidelines. Overnight cultures of Staphylococcus aureus 133, Enterococcus faecalis 27159, E. faecium 4147 and Streptococcus pneumoniae G9a are incubated with the described test substances in a 1:2 dilution series. The MIC determination is carried out with a cell count of 10^5 microbes per ml in Isosensitest medium (Difco, Irvine/USA), with the exception of S. pneumoniae which is tested in BHI broth (Difco, Irvine/USA) with 10% bovine serum with a cell count of 10^6 microbes per ml. The cultures are incubated at 37° C. for 18-24 hours, S. pneumoniae in the presence of 10% CO2.
(§15) The MIC is defined as the lowest concentration of each substance at which no visible bacterial growth occurs any longer. The MIC values are reported in μg/ml.

[4] = test system: Streptococcus pneumoniae G9a; format: cell-based; details: G9a
Method: as §13, §14, §15

[5] = test system: E. faecalis ICB 27159; format: cell-based, Enterococcus faecalis; details: ICB 27159
Method: as §13, §14, §15

| SMILES | fraction unbound at 30 min, 200 ng/mL [1] | fraction unbound at 30 min [2] | MIC S. aureus 133 [3] [µg/mL] | MIC S. pneumoniae G9a [4] [µg/mL] | MIC E. faecalis ICB 27159 [5] [µg/mL] |
| --- | --- | --- | --- | --- | --- |
| CC[C@H](C)[C@@H]1NC(=O)[C@@H](CCCNC(=N)N)NC(=O)[C@H](CC(C)C)NC(=O)[C@H]([C@H](O)C(C)C)NC(=O)[C@@H](NC(=O)[C@H](CC(C)C)NC(=O)[C@H](N)CC(C)C)[C@@H](c2ccccc2)OC(=O)[C@H](CO)NC(=O)[C@H]([C@H](O)C(N)=O)NC(=O)CNC(=O)[C@H]([C@H](C)O)NC1=O [1a (Lysobactin), D-Leucyl-N^1-{(3S,6S,12S,15S,18R,21S,24S,27S,28R)-6-[(1S)-2-amino-1-hydroxy-2-oxo-ethyl]-18-(3-{[amino(imino)methyl]amino}propyl)-12-[(1S)-1-hydroxyethyl]-3-(hydroxy-methyl)-24-[(1R)-1-hydroxy-2-methylpropyl]-21-isobutyl-15-[(1S)-1-methylpropyl]-2,5,8,11,14,17,20,23,26-nonaoxo-28-phenyl-1-oxa-4,7,10,13,16,19,22,25-octaazacyclo-octacosan-27-yl}-L-leucinamide Bistrifluoroacetate, reference compound] (H-[dL]L[Phe(3R-OH)][Leu(3R-OH)]L[dR]I[aThr]G[Asn(3S-OH)]S; ester 3-C) | 0.0076 | 0.0081 |  |  |  |
| CC[C@H](C)[C@@H]1NC(=O)[C@@H](CCCNC(=N)N)NC(=O)[C@H](CC(C)C)NC(=O)[C@H]([C@H](O)C(C)C)NC(=O)[C@@H](NC(=O)[C@H](CC(C)C)NC(=O)[C@H](N)CC(C)C)[C@@H](c2ccccc2)OC(=O)[C@H](CO)NC(=O)[C@H]([C@H](O)C(=O)NCCCN2CCOCC2)NC(=O)CNC(=O)[C@H]([C@H](C)O)NC1=O [Example 4, N^4.10-(3-Morpholin-4-yl-propyl)-D-leucyl-L-leucyl-[(3R)-3-hydroxy-L-phenylalanyl]-[(3R)-3-hydroxy-L-leucyl]-L-leucyl-D-arginyl-L-isoleucyl-L-allothreonylglycyl-[(3S)-3-hydroxy-L-asparaginyl]-L-serine C^1.11—O^3.3-lactone Tristrifluoroacetate] (H-[dL]L[Phe(3R-OH)][Leu(3R-OH)]L[dR]I[aThr]G[X8]S; ester 3-C) | 0.068 | 0.024 |  |  |  |
| CC[C@H](C)[C@@H]1NC(=O)[C@@H](CCCNC(=N)N)NC(=O)[C@H](CC(C)C)NC(=O)[C@H]([C@H](O)C(C)C)NC(=O)[C@@H](NC(=O)[C@H](CC(C)C)NC(=O)[C@H](N)CC(C)C)[C@@H](c2ccccc2)OC(=O)[C@H](CO)NC(=O)[C@H]([C@H](O)C(=O)NCC(=O)OCc2ccccc2)NC(=O)CNC(=O)[C@H]([C@H](C)O)NC1=O.O=C(O)C(F)(F)F.O=C(O)C(F)(F)F [Example 8, N^4.10-(2-(Benzyloxy)-2-oxoethyl)-D-leucyl-L-leucyl-[(3R)-3-hydroxy-L-phenylalanyl]-[(3R)-3-hydroxy-L-leucyl]-L-leucyl-D-arginyl-L-isoleucyl-L-allothreonylglycyl-[(3S)-3-hydroxy-L-β-asparaginyl]-L-serine C^1.11—O^3.3-lactone Bistrifluoroacetate] (H-[dL]L[Phe(3R-OH)][Leu(3R-OH)]L[dR]I[aThr]G[X4]S; ester 3-C) |  |  | 0.5 | 2 | 16 |
| CC[C@H](C)[C@@H]1NC(=O)[C@@H](CCCNC(=N)N)NC(=O)[C@H](CC(C)C)NC(=O)[C@H]([C@H](O)C(C)C)NC(=O)[C@@H](NC(=O)[C@H](CC(C)C)NC(=O)[C@H](N)CC(C)C)[C@@H](c2ccccc2)OC(=O)[C@H](CO)NC(=O)[C@H]([C@H](O)C(=O)NCCNC(=O)OCc2ccccc2)NC(=O)CNC(=O)[C@H]([C@H](C)O)NC1=O.O=C(O)C(F)(F)F.O=C(O)C(F)(F)F [Example 9, N^4.10-(2-{[(Benzyloxy)carbonyl]amino}ethyl)-D-leucyl-L-leucyl-[(3R)-3-hydroxy-L-phenylalanyl]-[(3R)-3-hydroxy-L-leucyl]-L-leucyl-D-arginyl-L-isoleucyl-L-allothreon-ylglycyl-[(3S)-3-hydroxy-L-asparaginyl]-L-serine C^1.11—O^3.3-lactone Bistrifluoroacetate] (H-[dL]L[Phe(3R-OH)][Leu(3R-OH)]L[dR]I[aThr]G[X3]([Ethylenediamine-Cbz])S; ester 3-C) |  |  | 0.5 | 2 | 16 |
| CC[C@H](C)[C@@H]1NC(=O)[C@@H](CCCNC(=N)N)NC(=O)[C@H](CC(C)C)NC(=O)[C@H]([C@H](O)C(C)C)NC(=O)[C@@H](NC(=O)[C@H](CC(C)C)NC(=O)[C@H](N)CC(C)C)[C@@H](c2ccccc2)OC(=O)[C@H](CO)NC(=O)[C@H]([C@H](O)C(=O)NCC(N)=O)NC(=O)CNC(=O)[C@H]([C@H](C)O)NC1=O.O=C(O)C(F)(F)F.O=C(O)C(F)(F)F [Example 10, N^4.10-(2-Amino-2-oxoethyl)-D-leucyl-L-leucyl-[(3R)-3-hydroxy-L-phenylalanyl]-[(3R)-3-hydroxy-L-leucyl]-L-leucyl-D-arginyl-L-isoleucyl-L-allothreonylglycyl-[(3S)-3-hydroxy-L-asparaginyl]-L-serine C^1.11—O^3.3-lactone Bistrifluoroacetate] (H-[dL]L[Phe(3R-OH)][Leu(3R-OH)]L[dR]I[aThr]G[X6]S; ester 3-C) |  |  | 0.25 | 1 | 2 |
| CC[C@H](C)[C@@H]1NC(=O)[C@@H](CCCNC(=N)N)NC(=O)[C@H](CC(C)C)NC(=O)[C@H]([C@H](O)C(C)C)NC(=O)[C@@H](NC(=O)[C@H](CC(C)C)NC(=O)[C@H](N)CC(C)C)[C@@H](c2ccccc2)OC(=O)[C@H](CO)NC(=O)[C@H]([C@H](O)C(=O)NCCN)NC(=O)CNC(=O)[C@H]([C@H](C)O)NC1=O.O=C(O)C(F)(F)F.O=C(O)C(F)(F)F.O=C(O)C(F)(F)F [Example 12, N^4.10-(2-Aminoethyl)-D-leucyl-L-leucyl-[(3R)-3-hydroxy-L-phenylalanyl]-[(3R)-3-hydroxy-L-leucyl]-L-leucyl-D-arginyl-L-isoleucyl-L-allothreonylglycyl-[(3S)-3-hydroxy-L-asparaginyl]-L-serine C^1.11—O^3.3-lactone Tristrifluoroacetate] (H-[dL]L[Phe(3R-OH)][Leu(3R-OH)]L[dR]I[aThr]G[X5]S; ester 3-C) |  |  | 0.5 | 2 | 8 |
